Assay results taken from patent EP0165775A1, “Antifungal azole compounds” (IMPERIAL CHEMICAL INDUSTRIES PLC, priority 1984, dated 1985).

Tested on: Candida albicans and Trichophyton mentagrophytes var. quinkeanum
Assay: animal or person
Assay type: in vivo
Details: 168 h; female mice, oral dosing twice on day 0 and once daily on days 1-4; skin lesions scored and vaginal samples cultured on day 7; read-out: minimum effective dose (MED)
Description: The following Monday (day 0) they are clipped on the back and then dosed orally with test compounds. They are then inoculated with Candida albicans in the vagina and Trichophyton mentagrophytes var. quinkeanum on the back, and then given a second dose of the same compound. Dosing is repeated once daily on days 1-4. On day 7 skin lesions are scored visually and vaginal samples taken for culture on agar. Groups of 5 mice are used and compounds are dosed initially at a level of 250mg./kg. The dose is then reduced sequentially until a minimum effective dose (MED) is found.

In the case of OC(Cn1cncn1)(Cn1cnc(Br)n1)c1ccc(F)cc1F (stereo not drawn) [Example 1, 1-(3-bromo-1,2,4-triazol-1-yl)-2-(2,4-difluorophenyl)-3-(1,2,4-triazol-l-yl)propan-2-ol], the minimal effective dose is reported as 2.5 mg/kg.
